Source: ChEMBL document CHEMBL1201862, “PubChem BioAssay data set” (2004)
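Five compound concentrations were applied to cells in 96-well plates for 48 hours; endpoints were derived by simple linear interpolation of the resulting dose-response curve. At the GI50, growth is halved.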 The source made the active and inactive calls. Rule as the data show it: active = GI50 up to about 1.1 µM and inactive = higher.

What was measured:
Test in all cases: NCI anticancer screen, dose series, 48 h
A498 = system: A498
BT-549 = system: BT-549
HCC 2998 = system: HCC 2998
HT-29 = system: HT-29
Hs-578T = system: Hs-578T
K562 = system: K562
M14 = system: M14
NCI-H460 = system: NCI-H460
OVCAR-5 = system: OVCAR-5
RXF 393 = system: RXF 393
SK-OV-3 = system: SK-OV-3
SNB-75 = system: SNB-75
SW-620 = system: SW-620
TK-10 = system: TK-10
U-251 = system: U-251
UACC-257 = system: UACC-257
UO-31 = system: UO-31
786-0 = system: 786-0
KM12 = system: KM12
NCI-H522 = system: NCI-H522

Measured: GI50

CC(C)(C)OC(=O)NCC(=O)NC1C/C(=N\O)c2sccc21 (configuration not stated)
inactive: A498 > 100 µM | BT-549 > 100 µM | HCC 2998 > 100 µM | HT-29 > 100 µM | Hs-578T > 100 µM | K562 > 100 µM | M14 > 100 µM | NCI-H460 > 100 µM | OVCAR-5 > 100 µM | RXF 393 > 100 µM | SK-OV-3 > 100 µM | SNB-75 > 100 µM | SW-620 > 100 µM | TK-10 > 100 µM | U-251 > 100 µM | UACC-257 > 100 µM | UO-31 > 100 µM

Cc1cccc(NC(=S)Nc2ccccc2Cl)n1
inactive: 786-0 34.3 µM | A498 24.9 µM | BT-549 59.7 µM | HT-29 > 100 µM | Hs-578T 38.4 µM | K562 > 100 µM | KM12 25.8 µM | M14 > 100 µM | NCI-H460 59.3 µM | OVCAR-5 81.7 µM | RXF 393 20.7 µM | SK-OV-3 25.8 µM | SNB-75 19.3 µM | SW-620 > 100 µM | TK-10 34.8 µM | U-251 33.6 µM | UACC-257 22.2 µM | UO-31 > 100 µM

Nc1ncc(CN2CCOCC2)c(-c2ccccc2O)n1
inactive: 786-0 > 100 µM | A498 > 100 µM | BT-549 > 100 µM | HT-29 > 100 µM | Hs-578T > 100 µM | K562 > 100 µM | KM12 > 100 µM | M14 > 100 µM | NCI-H460 > 100 µM | OVCAR-5 > 100 µM | RXF 393 > 100 µM | SK-OV-3 > 100 µM | SNB-75 > 100 µM | SW-620 > 100 µM | TK-10 > 100 µM | U-251 > 100 µM | UACC-257 > 100 µM | UO-31 > 100 µM

COc1ccc(N2C(=O)C3c4[nH]c5ccc(Br)cc5c4C4CCC(C(C)(C)C)CC4C3C2=O)cc1 (configuration not stated)
inactive: 786-0 > 100 µM | A498 > 100 µM | BT-549 > 100 µM | HCC 2998 > 100 µM | HT-29 > 100 µM | Hs-578T > 100 µM | K562 > 100 µM | KM12 > 100 µM | M14 94.2 µM | NCI-H460 > 100 µM | NCI-H522 > 100 µM | OVCAR-5 > 100 µM | RXF 393 > 100 µM | SK-OV-3 > 100 µM | SW-620 > 100 µM | TK-10 > 100 µM | U-251 > 100 µM | UACC-257 > 100 µM

CCCCN1C(=O)CC2[C@@H]3CCc4cc(OC(C)=O)ccc4C3CC[C@]2(C)C1=O (some centres not stated)
inactive: 786-0 > 10 µM | A498 > 10 µM | BT-549 > 10 µM | HCC 2998 > 10 µM | HT-29 > 10 µM | Hs-578T > 10 µM | K562 > 10 µM | KM12 > 10 µM | M14 > 10 µM | NCI-H460 > 10 µM | OVCAR-5 > 10 µM | RXF 393 > 10 µM | SK-OV-3 > 10 µM | SW-620 > 10 µM | TK-10 > 10 µM | U-251 > 10 µM | UACC-257 > 10 µM | UO-31 > 10 µM

O=C1/C(=C\c2ccc(O)cc2)CCC/C1=C/c1ccc(Cl)c(Cl)c1
inactive: 786-0 2.43 µM | A498 3.39 µM | BT-549 2.77 µM | HCC 2998 2.31 µM | HT-29 1.63 µM | Hs-578T 5.65 µM | K562 2.67 µM | KM12 1.7 µM | M14 2.13 µM | OVCAR-5 18.8 µM | RXF 393 2.38 µM | SK-OV-3 4.37 µM | SNB-75 2.72 µM | SW-620 3.37 µM | TK-10 2.98 µM | U-251 4.36 µM | UACC-257 4.19 µM | UO-31 2.75 µM
